{
  "source": "patent US20200179487A1",
  "about": "“METHODS OF DIAGNOSIS AND TREATMENT OF PRE-ECLAMPSIA” (AGENCY FOR SCIENCE, TECHNOLOGY AND RESEARCH, priority 2016, published 2020)",
  "test_system": "APJ-expressing primary allantoic cultures",
  "experiment": "Allantoic explants treated with ligands, digital droplet PCR of gene expression",
  "assay_type": "cell-based, mouse",
  "details": "2.5 μM, 12 hours, ddPCR, ELA versus APLN",
  "experimental": "Allantoic explants were microdissected from 4-5 somite stage embryos on the morning of the 8th day of conception in dissection medium (DMEM+Hepes+7.5% FCS), and cultured in DMEM+NaHCO3+50% rat serum, on poly-L-lysine coated microwells (Ibidi). […] 12 hours later, the explants were harvested by direct lysis and RNA extracted with the Nucleospin RNA XS kit (Machery Nagel). cDNA was made using the SMARTer® Pico PCR cDNA Synthesis Kit (Clontech) and gene quantitation was performed using digital droplet PCR (Biorad) with EvaGreen and PrimeTime probes listed below: […]",
  "data": [
    {"substance": "APLN: APLN-36 (Sigma); Apelin, the alternate ligand for APJ (LVQPRGSRNGPGPWQGGRRKFRRQRPRLSHKGPMPF; Apelin-36; UniProt Q9ULZ1 42-77, looked up)", "values": [
      {"measurement": "expression of hypoxic response genes", "setting": "Foxoa3 and Hif3α", "value": "opposite effects"},
      {"measurement": "expression of Esm1", "value": "opposite effects"}
    ]}
  ]
}
